The values below come from patent US20240408112A1, “METHOD FOR PREVENTING OR TREATING PULMONARY ARTERIAL HYPERTENSION BY USING 7-DEHYDROCHOLESTEROLS OR SALTS, OXIDES, METABOLITES, OR DERIVATIVES THEREOF” (EXCELSIOR PHARMATECH LABS., priority 2023, published 2024).

The subject of data set [1] is human pulmonary artery smooth muscle cells (hPASMC). Briefly: BrdU cell proliferation assay, 0.1% FBS, 100 pM TGF-β, hPASMC. The format is cell-based. Conditions: Homo sapiens. Here is the method:
(§1) BrdU (5-bromo-2-deoxyuridine) cell proliferation assay (BrdU assay)
(§2) A 48-well plate was used, and 1.5×10^4 cells were implanted in each well. After 24 hours, the medium was changed to serum-free culture medium and synchronized for 24 hours. A 2-fold concentration of the compound in serum-free culture medium is prepared and the cells were pretreated for 1 hour. Then, the same volume of culture medium containing 20% fetal bovine serum (FBS) was added to dilute the compound. The final concentration was 10% FBS culture medium and 1 times the concentration of the compound. In the experimental group that added TGF-β, the same volume of TGF-β culture medium containing 10 ng/mL was added, with a final concentration of 5 ng/mL TGF-β and 1 times the concentration of the compound, and in the experimental group added with TGF-β, the entire process was conducted in culture medium containing 0.1% serum. Then, BrdU reagent was added about 6 hours later, and the cells were collected the next day for enzyme-linked immunosorbent assay (ELISA) analysis, the compound treatment time was about 24 hours, and the BrdU treatment time was about 18 hours.
(§3) Five compounds to be tested were screened by cell survival assay (MTT assay) and BrdU (5-bromo-2-deoxyuridine) cell proliferation assay, and the information of these compounds was listed in Table 1 below. Tables 2 and 3 respectively listed the growth inhibitions of on human pulmonary artery endothelial cells (hPAEC), human pulmonary artery smooth muscle cells (hPASMC), normal rat pulmonary artery smooth muscle cells (rPASMC, as the control group, represented by “CON”), and rat pulmonary artery smooth muscle cells (represented by “MCT”), by the five compounds to be tested under the conditions of 10% FBS, 0.1% FBS and 100 pM TGF-β.

Data set [2] has as its system normal rat pulmonary artery smooth muscle cells (rPASMC CON). Description: BrdU cell proliferation assay, 0.1% FBS, 100 pM TGF-β, rPASMC CON. The format is cell-based. The settings on record: Rattus norvegicus. Here is the method: as §1
as §2, with “with a final concentration of 5 ng/mL TGF-β and 1 times the concentration” left out
Five compounds to be tested were screened by cell survival assay (MTT assay) and BrdU (5-bromo-2-deoxyuridine) cell proliferation assay, and the information of these compounds was listed in Table 1 below.

Data set [3] deals with human pulmonary artery endothelial cells (hPAEC). Briefly: BrdU cell proliferation assay, 0.1% FBS, 100 pM TGF-β, hPAEC. Format: cell-based. The settings on record: Homo sapiens, Endothelial cell. Here is the method:
as §1, §2, §3

Data set [4] relates to monocrotaline induced pulmonary hypertension rat. Briefly: Monocrotaline-induced pulmonary arterial hypertension rat model, Example 2 (7-DHC, 042). The format is in vivo. Conditions: 50 mg/kg IP. The text has this:
(§4) Pulmonary arterial hypertension animal experimental model
(§5) The present disclosure utilizes injection of monocrotaline to induce symptoms of pulmonary arterial hypertension in rats to establish a pulmonary arterial hypertension animal experimental model suitable for screening test drugs.
(§6) The diagnostic method of clinical pulmonary arterial hypertension standards is right heart catheterization, which is defined as mean pulmonary arterial pressure (mPAP) greater than or equal to 20 mmHg. The diagnostic criteria for pulmonary arterial hypertension, in addition to an increase in mean pulmonary arterial pressure, need to be combined with pulmonary vascular resistance (PVR) greater than 3 Wood unit. The right ventricle pressure (RVP) and systemic mean blood pressure (mbp) in rats with pulmonary arterial hypertension were measured by Millar Model PCU200 pressure system, and the heart rate (HR) was also monitored at the same time. After measuring the hemodynamic data, the arterial blood was extracted from the carotid artery of the pulmonary arterial hypertension rat, and the Abbott blood oximeter (i-STAT) combined with Abbott's special chip cartridge (i-STAT Cartridge G3+) was used to measure arterial gas analysis data such as pH, PaO2, PaCO2, HCO3 and base excess (BE) value in quantitative whole blood samples. The normal pH value is between 7.35 and 7.45, and the pH value indicates whether the experimental animal has the condition of acidemia, alkalemia, acidosis or alkalosis. The normal value of PaO2 is between 80 and 100 mmHg, which reflects the effectiveness of gas exchange (ventilation/perfusion). The normal value of PaCO2 is between 35 and 45 (such as 38 and 42) mmHg, which can evaluate the effectiveness of alveolar ventilation. The acid produced by food, tissue decomposition, inflammation and hypoxia rely on the lungs to excrete volatile acid CO2 (short-term) and the bicarbonate (HCO3^−) produced by the kidneys (long-term) to neutralize non-volatile acids, while the normal value of bicarbonate hydrogen radical (HCO3^−) is between 22 and 26 meq/L. BE is the base excess value, its normal value ranges from −2 to +2, the negative value represents the degree of alkali ion deficiency in the blood, a negative BE value (−) that is too high indicates metabolic acidosis, and a positive value (+) that is too high is metabolic alkalosis. At the end of the experiment, the rats were sacrificed and their hearts were removed and the left and right ventricles were separated and weighed (RV)/(S)+(LV).
Monocrotaline (MCT) was utilized to induce pulmonary hypertension rat animal model, the TGF-β receptor inhibitor 7-DHC (039) and compound No. 042 were tested via intraperitoneal (IP) administration, and the physiological parameters of the animals were collected, wherein includes measuring right ventricle pressure, systemic arterial pressure, heartbeat and right ventricle hypertrophy, as well as observing and analyzing the pulmonary artery thickening and blood oxygenation levels through pathological sections of lung tissue. Specifically, 7-DHC (039) was divided into two groups with a dosage of 10 mg/kg or 20 mg/kg, the dosage of group 042 was 50 mg/kg, each dosage group has 3 rats (n=3), while the control group (CON) and the pulmonary arterial hypertension rat group (MCT) had 6 rats (n=6) respectively.

In data set [5] the test system is human pulmonary artery endothelial cells (hPAEC). Description: BrdU cell proliferation assay, 10% FBS, hPAEC. The format is cell-based. The settings on record: Homo sapiens, Endothelial cell, read-out: EC50 (concentration for 50% of maximal effect). Here is the method:
as §1, §2, §3

In data set [6] the test system is TGF-β-stimulated PAI-1 promoter activity. Description: TGF-β stimulated Pai-1 luciferase assay in MLECs-clone32 cells. The format is cell-based. Conditions: TGF-β 50 pM, 4 hours, read-out: IC50 value of compound inhibiting TGF-β-stimulated Pai-1 luciferase activity (%). From the text: TGF-β Stimulated Pai-1 Luciferase Assay
MLECs-clone32 cell line was used to measure the impact of different compounds on the downstream gene, plasminogenactivator inhibitor 1 (PAI-1) performance stimulated by TGF-β. MLECs-clone32 is an expression construct that is stably transfected for the Mv1Lu cell line, and the expression construct PAI-1 Luciferase contains a truncated (PAI-1) promoter fused to the firefly luciferase reporter gene^11,12. The activity stimulated by the truncated PAI-I promoter was quantified by using a luciferase assay. The luciferase activity stimulated by TGF-β in cells without compound treatment was set as 100%, and the effects of each compound on TGF-β-stimulated PAI-I promoter activity were compared. The steps for measuring Pai-1 luciferase activity include using a 96-well plate (DMEM medium containing 10% FBS), seeding each well with 1.5×10^5 cells, and culturing in an incubator overnight. After discarding the medium the next day, cells in DMEM medium with or without the addition of test compounds were treated with recombinant TGF-β (50 pM) and allowed to react in a 37° C. incubator for 4 hours. The cell culture medium was aspirated, washed with PBS, and the activity of Pai-1 luciferase was evaluated by luciferase assay.

Data set [7] concerns human pulmonary artery smooth muscle cells (hPASMC). Description: BrdU cell proliferation assay, 10% FBS, hPASMC. The settings on record: Homo sapiens, read-out: EC50 (concentration for 50% of maximal effect). Format: cell-based. Here is the method:
as §1, §2, §3

Data set [8] has as its system PAH rat pulmonary artery smooth muscle cells (rPASMC MCT). Briefly: BrdU cell proliferation assay, 0.1% FBS, 100 pM TGF-β, rPASMC MCT. Format: cell-based. The settings on record: Rattus norvegicus. Here is the method: as §1, §2, §3
The test system of data set [9] is normal rat pulmonary artery smooth muscle cells (rPASMC CON). Briefly: BrdU cell proliferation assay, 10% FBS, rPASMC CON. The settings on record: Rattus norvegicus, read-out: EC50 (concentration for 50% of maximal effect). Format: cell-based. Here is the method: as §1, §2, §3
The test system of data set [10] is PAH rat pulmonary artery smooth muscle cells (rPASMC MCT). Briefly: BrdU cell proliferation assay, 10% FBS, rPASMC MCT. Format: cell-based. The settings on record: Rattus norvegicus, read-out: EC50 (concentration for 50% of maximal effect). Here is the method:
as §1, §2, §3

In data set [11] the test system is monocrotaline induced pulmonary arterial hypertension rat. Description: Monocrotaline-induced pulmonary arterial hypertension rat model, Example 3 (7-DHC vs macitentan). The format is in vivo. Conditions: 30 mg/kg oral.
Description: as §4, §5, §6
Monocrotaline was utilized to induce pulmonary arterial hypertension rat animal model, intraperitoneal injection (IP) TGF-β receptor inhibitor 7-DHC (039) and oral administration of macitentan (soluble in methylcellulose), 7-DHC (039) was divided into two groups according to the dosage: 10 mg/kg or 20 mg/kg, and the dosage of macitentan group was 30 mg/kg.

[12] abbreviates: hPASMC, 100 pM TGF-β, 0.1% FBS, read-out: EC50.
Setting [13] is: CON (normal rPASMC), 100 pM TGF-β, 0.1% FBS, read-out: EC50.
[14] abbreviates: hPAEC, 100 pM TGF-β, 0.1% FBS, read-out: EC50.
The mark [15] stands for this setting: MCT (PAH rPASMC), 100 pM TGF-β, 0.1% FBS, read-out: EC50.

`O=c1cc(-c2ccccc2)oc2cc(O)c(O)c(O)c12` [Code 042, Baicalein]: the EC50 in [1] (setting [12]) was 4 µM; in data set [2] (setting [13]), 52 µM; in [3] (setting [14]), 15 µM; in data set [5] it was 20 µM; in data set [7], 5 µM; in data set [8] (setting [15]), 9 µM. The “Right ventricle hypertrophy (RV/S+LV), in words” value in data set [4] (compared with MCT rats) is recorded as “slightly lower”. Further, the “Weight and activity of the rats” value in data set [4] (second week of administration, sacrificed early on day 21) is reported as “significantly decreased”. Further, the IC50 in data set [6] was determined as 14.8 µM.

`O=c1c(O)c(-c2ccc(O)c(O)c2)oc2cc(O)ccc12` [Code 050, Fisetin]: the EC50 in data set [9] (CON (normal rPASMC), 10% FBS) was determined as 59 µM; in data set [1] (setting [12]), 35 µM; in data set [2] (setting [13]), 106 µM; in data set [3] (setting [14]) it was 40 µM; in data set [5] (hPAEC, 10% FBS) it was 22 µM; in data set [7] (hPASMC, 10% FBS) it was 27 µM. In addition, the EC50 was found to be 38 µM in data set [10] (MCT (PAH rPASMC), 10% FBS) and 79 µM in data set [8] (setting [15]). Moreover, the IC50 in data set [6] turned out to be 44.1 µM.

Consider `CCCNS(=O)(=O)Nc1ncnc(OCCOc2ncc(Br)cn2)c1-c1ccc(Br)cc1` [Code 053, Macitentan], for which the “Blood vessel thickening, in words” value in data set [11] is “reduction in blood vessel thickening was also observed”. The “Survival rate compared with the 7-DHC (039) group, in words” value in [11] is given as “significantly worse”. In [11] (23rd day after monocrotaline induction), the Animal survival status entry is given as “died”. In addition, the “Body weight and activity of the rats” value in [11] (second week of administration) is on record as “not greatly affected”. The EC50 in [9] turned out to be 142 µM; in [1] (setting [12]), 59 µM; in data set [2] (setting [13]), 96 µM; in data set [3] (setting [14]), 40 µM; in [5], 175 µM; in data set [7], 100 µM. Also, the EC50 in [10] was found to be 114 µM; in data set [8] (setting [15]) it was 87 µM. In addition, the IC50 in data set [6] turned out to be 82.9 µM.

`O=C(O)[C@H](O)Cc1ccc(O)c(O)c1` [Code 056, Danshensu]: the EC50 in [9] was found to be 35 µM; in data set [1], 100 µM; in [2], 50 µM; in data set [3] it was 155 µM; in [5], 272 µM; in [7], 124 µM. Besides, the EC50 in data set [10] amounted to 25 µM; in data set [8], 36 µM.

Turning to `CC(C)CCC[C@@H](C)[C@H]1CC[C@H]2C34C=CC5(C[C@@H](OC(=O)CBr)CC[C@]5(C)[C@H]3CC[C@]12C)n1c(=O)n(C)c(=O)n14` (stereo partly shown) [Code 203, MeTC7], the IC50 in data set [6] worked out at 17.5 µM.

One may read the IC50 as the midpoint of a concentration-inhibition curve.
